The target in the first experiment is T1, HIV-I Protease (Human immunodeficiency virus type 1 group M subtype B, UniProt P04585).
T1 construct: HIV-I Protease: The enzyme is obtained from Bachem Bioscience Inc; purchased Bachem Bioscience Inc
Briefly: HIV protease inhibition (hydrolysis of undecapeptide substrate, HPLC readout). In kind it is biochemical. The following applies: 40 µM substrate, pH 4.7, 37 °C, 5 minutes; read-out: 50% Inhibition Concentration (Averaged). On the procedure: • DTT Buffer: 1.0 mM dithiothreitol (DTT) was prepared fresh daily in 0.1% polyethylene glycol (mw 8000) 80 mM NaOAc, 160 mM NaCl, 1.0 mM EDTA, and brought to pH 4.7 with HCl. • HIV-I Protease: The enzyme is obtained from Bachem Bioscience Inc. The undiluted enzyme is thawed from -80 °C and diluted 50-fold with DTT buffer. The solution is always kept at 0 °C on ice water and used in the experiment within 20 minutes after thawing. • Enzyme Substrate: Substrate III from Bachem Bioscience Inc. is the undecapeptide H-His-Lys-Ala-Arg-Val-Leu-p-Nitrophenylalanine-Glu-Ala-Norleucine-ser-NH2 (> 97 % purity). A 200. µM stock solution in DTT buffer is prepared and stored on ice. Substrate solution is prepared fresh daily. • Test Compound: 10 mM inhibitor (I) in dimethyl sulfoxide (DMSO) is diluted to 200 µM with DTT buffer. From the 200 µM stock solution is made a 10 µM stock solution with 2% DMSO in DTT buffer. The two inhibitor solutions are used to make final [I] = 100, 50, 20, 10, 5, 2, 1, 0.5 and 0 µM with 2% DMSO in DTT buffer in each reaction well (total inhibitor volume of 50 µl).
To each reaction well is added 20 µl of substrate (final concentration of 40 µM), 50 µl of inhibitor (at a concentration such that final dilution will produce the test concentration) and 20 µl of DTT buffer. The reaction plate (96 wells) is incubated at 37 °C for at least 5 minutes.
10 µl of the diluted protease is added to the reaction well while the reaction plate is shaking. Once shaken for 10 seconds, the plate is returned to the heating block at 37 °C. (Final reaction volume = 100 µl.)
The reaction is incubated for 5 minutes at 37 °C. The reaction is stopped by placing the reaction plate on the shaker and adding 20 µl of 10% trifluoroacetic acid (TFA) and shaking for 10 seconds. The amount of proteolysis is then determined by separation of noncleaved substrate and two cleaved products with reverse-phase HPLC, while measuring absorbance at 220 nm to determine the relative peak areas of the three components. The relative peak areas are used to calculate % conversion to product as a function of inhibitor concentration. The data is plotted as % Control (the ratio of % conversion in the presence and absence of inhibitor x 100) versus inhibitor concentration and fit with the equation Y= 100/1+(X/IC50)^A, where IC50 is the inhibitor concentration at 50% inhibition and A is the slope of the inhibition curve.
Consider `Cc1cccc(-c2cc(O)c(SCc3ccccc3)c(=O)o2)c1` [Example 42, 4-Hydroxy-6-(3-methylphenyl)-3-[(phenylmethyl)thio]-2H-pyran-2-one], for which the IC50 was 860 nM.

As for `O=c1oc(-c2ccccc2)cc(O)c1C(Sc1ccccc1)c1ccccc1` (racemic) [Example 31, 4-Hydroxy-6-phenyl-3-[phenyl(phenylthio)methyl]-2H-pyran-2-one], the IC50 is 800 nM.

With `O=c1oc(-c2ccc(O)cc2)cc(O)c1SCc1ccccc1` [Example 15, 4-Hydroxy-6-(4-hydroxyphenyl)-3-[(phenylmethyl)thio]-2H-pyran-2-one], the IC50 amounted to 690 nM.

With `CCOC(=O)COc1ccc(-c2cc(O)c(SCCc3ccccc3)c(=O)o2)cc1` [Example 60, 4-[4-Hydroxy-2-oxo-3-[(2-phenylethyl)thio]-2H-pyran-6-yl]phenoxy acetic acid ethyl eater], the IC50 was determined as 610 nM.

As to `CC(C)CC(SC1CCCCC1)c1c(O)cc(-c2ccc3c(c2)OCCO3)oc1=O` (racemic) [Example 115, 3-[1-(Cyclohexylthio)-3-methylbutyl]-6-(2,3-dihydro-1,4-benzodioxin-6-yl)4-hydroxy-2H-pyran-2-one], the IC50 was 200 nM.

Take `O=c1oc(-c2ccccc2)cc(O)c1SCc1ccccc1` [Example 8]: the IC50 is 1700 nM.

Turning to `O=c1oc(-c2cccc(OCCc3ccccc3)c2)cc(O)c1SCCc1ccccc1` [Example 30, 4-Hydroxy-6-[3-(2-phenylethoxy)phenyl]-3-[(2-phenyl-ethyl)thio]-2H-pyran-2-one], the IC50 amounted to 1970 nM.

With `CC(C)c1ccccc1Sc1c(O)cc(-c2ccc(OCc3cccnc3)cc2)oc1=O` [Example 157, 4-Hydroxy-3-[(2-isopropylphenyl)thio]-6-[4-(pyridin-3-ylmethoxy)phenyl]-2H-pyran-2-one], the IC50 was found to be 68 nM.

With `O=c1oc(-c2cccc(Cl)c2)cc(O)c1SCc1ccccc1` [Example 1, 6-(3-Chlorophenyl)-4-hydroxy-3-[(phenylmethyl)thio]-2H-pyran-2-one], the IC50 came out at 470 nM.

`O=c1oc(-c2ccc3c(c2)OCO3)cc(O)c1SCc1ccccc1` [Example 50, 6-(1,3-Benzodioxol-5-yl)-4-hydroxy-3-[(phenylmethyl)thio]-2H-pyran-2-one]: the IC50 was 600 nM.

Take `O=c1oc(-c2ccccc2)cc(O)c1SC/C=C/c1ccccc1` [Example 25, 4-Hydroxy-6-phenyl-3-[3-(phenyl-2-propenyl)thio]-2H-pyran-2-one, (E)-]: the IC50 stood at 1900 nM.

As to `CC(C)CC(SC1CCCC1)c1c(O)cc(-c2ccccc2)oc1=O` (racemic) [Example 96, 3-[1-(Cyclopentylthio)-3-methylbutyl]-4-hydroxy-6-phenyl-2H-pyran-2-one], the IC50 was 70 nM.

On to `O=c1oc(-c2cccc(Cl)c2)cc(O)c1SCCc1ccccc1` [Example 6, 6-(3-Chlorophenyl)-4-hydroxy-3-[(2-phenylethyl)thio]-2H-pyran-2-one], for which the IC50 is 400 nM.

Regarding `Cc1cc(C)cc(-c2cc(O)c(Sc3ccccc3)c(=O)o2)c1` [Example 148, 6-(3,5-Dimethylphenyl)-4-hydroxy-3-(phenylthio)-2H-pyran-2-one], the IC50 is 630 nM.

For `COc1ccc(-c2cc(O)c(SCc3ccccc3)c(=O)o2)cc1C` [Example 46, 4-Hydroxy-6-(4-methoxy-3-methylphenyl)-3-[(phenylmethyl)thio]-2H-pyran-2-one], the IC50 came to 700 nM.

As to `O=c1oc(-c2cccc(-c3ccccc3)c2)cc(O)c1Sc1ccc2ccccc2c1` [Example 168, 6-(1,1'-Biphenyl-3-yl)-4-hydroxy-3-[(naphthalen-2-yl)thio]-2H-pyran-2-one], the IC50 was determined as 410 nM.

On to `O=c1oc(-c2cccc(OCc3ccccc3)c2)cc(O)c1SCCc1ccccc1` [Example 39, 4-Hydroxy-3-[(2-phenylethyl)thio]-6-[3-(phenylmethoxy)phenyl]-2H-pyran-2-one], for which the IC50 stood at 750 nM.

`Cc1cc(-c2cc(O)c(SCc3ccccc3)c(=O)o2)cc(C)c1O` [Example 99, 4-Hydroxy-6-(4-hydroxy-3,5-dimethylphenyl)-3-[(phenylmethyl)thio]-2H-pyran-2-one]: the IC50 worked out at 240 nM.

`O=c1oc(-c2ccc(OCc3ccccn3)cc2)cc(O)c1SCCc1ccccc1` [Example 59, 4-Hydroxy-3-[(2-phenylethyl)thio]-6-[4-(2-pyridinylmethoxy)phenyl]-2H-pyran-2-one]: the IC50 was 770 nM.

Take `O=c1oc(-c2ccc(Oc3ccccc3)cc2)cc(O)c1SCCc1ccccc1` [Example 57, 4-Hydroxy-6-(4-phenoxyphenyl)-3-[(2-phenylethyl)thio]-2H-pyran-2-one]: the IC50 was found to be 1900 nM.

For the compound `COc1ccccc1COc1ccc(-c2cc(O)c(SCCc3ccccc3)c(=O)o2)cc1` [Example 54, 4-Hydroxy-6-[4-[(2-methoxyphenyl)methoxy]phenyl]-3-[(2-phenylethyl)thio]-2H-pyran-2-one], the IC50 was determined as 450 nM.

Regarding `O=c1oc(-c2cccc(O)c2)cc(O)c1SCc1ccccc1` [Example 23, 4-Hydroxy-6-(3-hydroxyphenyl)-3-[(phenylmethyl)thio]-2H-pyran-2-one], the IC50 is 1200 nM.

Regarding `O=c1oc(-c2ccccc2)cc(O)c1C(CC1CC1)SCc1ccccc1` (racemic) [Example 119, 3-[2-Cyclopropyl-1-[(phenylmethyl)thio]ethyl]-4-hydroxy-6-phenyl-2H-pyran-2-one], the IC50 worked out at 60 nM.

For the compound `O=c1oc(-c2ccc(Cl)c(Cl)c2)cc(O)c1SCc1ccccc1` [Example 3, 6-(3,4-Dichlorophenyl)-4-hydroxy-3-[(phenylmethyl)thio]-2H-pyran-2-one], the IC50 stood at 1000 nM.

For `O=c1oc(-c2ccc(O)cc2)cc(O)c1SCCc1ccccc1` [Example 24, 4-Hydroxy-6-(4-hydroxyphenyl)-3-[(phenylethyl)thio]-2H-pyran-2-one], the IC50 came to 500 nM.

`O=c1oc(-c2ccccc2)cc(O)c1SCCOc1ccccc1` [Example 20, 4-Hydroxy-3-[(2-phenoxyethyl)thio]-6-phenyl-2H-pyran-2-one]: the IC50 was found to be 1700 nM.

Turning to `COc1cccc(-c2cc(O)c(SCc3ccccc3)c(=O)o2)c1` [Example 4, 4-Hydroxy-6-(3-methoxyphenyl)-3-[(phenylmethyl)thio]-2H-pyran-2-one], the IC50 amounted to 900 nM.

`O=C(O)COc1ccc(-c2cc(O)c(SCCc3ccccc3)c(=O)o2)cc1` [Example 63, 4-[4-Hydroxy-2-oxo-3-[(2-phenylethyl)thio]-2H-pyran-6-yl]phenoxyacetic acid]: the IC50 amounted to 140 nM.

Still in this experiment, the particulars now being: read-out: 50% Inhibition Concentration (Averaged).
With `O=c1oc(-c2ccc3c(c2)OCCO3)cc(O)c1SCc1ccccc1` [Example 107, 6-(2,3-Dihydro-1,4-benzodioxin-6-yl)-4-hydroxy-3-[(phenylmethyl)thio]-2H-pyran-2-one], the IC50 turned out to be 480 nM.

Regarding `O=c1oc(-c2ccccc2)cc(O)c1C(CC1CC1)SC1CCCC1` (racemic) [Example 149, 3-[1-[Cyclopentylthio]-2-cyclopropylethyl]-4-hydroxy-6-phenyl-2H-pyran-2-one], the IC50 was found to be 55 nM.

A further experiment concerns HIV-1iiib. In words: Anti-HIV-1 activity, acute infection of H9 cells. In kind it is cell-based. As to conditions: Human immunodeficiency virus 1; H9 cell line infected with HIV-1iiib; reverse transcriptase assay at 4 and 7 days post infection; read-out: Concentration for 50% Protection. On the procedure:
Using the general methods of Pauwels et al., (J. Virol. Methods, 16, 171-185, 1987) and Mann et al. (AIDS Research and Human Retroviruses, 253-255, 1989) anti-viral assays of acute HIV-1 infection were performed in the H9 cell line. Cultures were batch infected in 1 ml of RPM1 1640 media/10% fetal calf serum containing 10^7 cells and 10^5 infectious doses of HIV-1iiib for an effective multiplicity of infection of 0.01. After 2 hours of viral absorption, cells were washed once and plated in 96-well microtiter plates at a density of 10^4 cells per well. Test compounds were added to produce the desired concentration of drug and 0.2% DMSO in a final volume of 200 µl. Uninfected parallel cultures were maintained for XTT cytotoxicity assay at 7 days post infection. Cultures were tested for viral replication by reverse transcriptase assay at 4 and 7 days post infection.
For `O=c1oc(-c2ccc3c(c2)OCCO3)cc(O)c1SCc1ccccc1` [Example 107, 6-(2,3-Dihydro-1,4-benzodioxin-6-yl)-4-hydroxy-3-[(phenylmethyl)thio]-2H-pyran-2-one], the EC50 turned out to be 15000 nM.

`CC(C)c1ccccc1Sc1c(O)cc(-c2ccc(OCc3cccnc3)cc2)oc1=O` [Example 157, 4-Hydroxy-3-[(2-isopropylphenyl)thio]-6-[4-(pyridin-3-ylmethoxy)phenyl]-2H-pyran-2-one]: the EC50 stood at 650 nM.

For the compound `Cc1cc(C)cc(-c2cc(O)c(Sc3ccccc3C(C)C)c(=O)o2)c1` [Example 154, 6-(3,5-Dimethylphenyl)-4-hydroxy-3-[(2-isopropylphenyl)-thio]-2H-pyran-2-one], the EC50 was 31000 nM.
